Experimental findings from ChEMBL document CHEMBL4507327 (2021) are described below.

The target in data set [1] is Beta-1 adrenergic receptor (Homo sapiens) (UniProt P08588). The conditions noted are these: Compound concentration 10.0 uM.
In data set [2] the target is D(4) dopamine receptor (Homo sapiens) (UniProt P21917). The conditions noted are these: Compound concentration 10.0 uM.
Data set [3] has as its target Serine/threonine-protein kinase SIK1 (Homo sapiens, UniProt P57059). The data set is described as follows: SIK(SIK1LHY1) Takeda global kinase panel.
Data set [4] has as its target Histamine H1 receptor (Homo sapiens) (UniProt P35367). The conditions noted are these: Compound concentration 10.0 uM.
For data set [5], the target named is Sigma intracellular receptor 2 (Homo sapiens) (UniProt Q5BJF2). To be noted: Compound concentration 10.0 uM.
The species named for another data set is Oryctolagus cuniculus. To be noted: Compound concentration 10.0 uM.
In data set [6] the target is Kappa-type opioid receptor (Homo sapiens) (UniProt P41145). The conditions noted are these: Compound concentration 10.0 uM.
The target in data set [7] is Sodium-dependent serotonin transporter (Homo sapiens) (UniProt P31645). The conditions noted are these: Compound concentration 10.0 uM.
Data set [8] concerns the target D(1A) dopamine receptor (Homo sapiens) (UniProt P21728). The conditions noted are these: Compound concentration 10.0 uM.
In data set [9] the target is 5-hydroxytryptamine receptor 5A (Homo sapiens) (UniProt P47898). To be noted: Compound concentration 10.0 uM.
For data set [10], the target named is Delta-type opioid receptor (Homo sapiens) (UniProt P41143). The conditions noted are these: Compound concentration 10.0 uM.
In data set [11] the target is Muscarinic acetylcholine receptor M3 (Homo sapiens) (UniProt P20309). To be noted: Compound concentration 10.0 uM.
The target of data set [12] is 5-hydroxytryptamine receptor 1E (Homo sapiens) (UniProt P28566). The conditions noted are these: Compound concentration 10.0 uM.
Data set [13] has as its target Mitogen-activated protein kinase kinase kinase kinase 4 (Homo sapiens, UniProt O95819). The data set can be described thus: HGK [ZC1(M4K4CGP1)] Takeda global kinase panel.
The target of data set [14] is Acetylcholine receptor subunit alpha (Homo sapiens) (UniProt P02708). The data set is described as follows: Inhibition of Nicotinic Acetylcholine D1, Bungarotoxin at 10 µM in the Eurofins-Panlabs radioligand binding assay (Eurofins_assay_258700). To be noted: Compound concentration 10.0 uM.
Data set [15] has as its target Endothelin-1 receptor (Homo sapiens) (UniProt P25101). The conditions noted are these: Compound concentration 10.0 uM.
In data set [16] the target is Proto-oncogene tyrosine-protein kinase receptor Ret (Homo sapiens, UniProt P07949). The data set is described as follows: Ret(RET1LGF1) Takeda global kinase panel.
For data set [17], the target named is Serine/threonine-protein kinase Sgk1 (Homo sapiens, UniProt O00141). The data set is described as follows: SGK1(SGK1LGF1) Takeda global kinase panel.
Data set [18] concerns the target Inhibitor of nuclear factor kappa-B kinase subunit alpha (Homo sapiens, UniProt O15111). The data set can be described thus: IKKalpha(CHUKLGP1) Takeda global kinase panel.
Another data set concerns the target Ephrin type-A receptor 2 (Homo sapiens, UniProt P29317). The data set can be described thus: EphA2(EPA2LGY1) Takeda global kinase panel.
A further data set concerns the target hERG (KCNH2) (Homo sapiens, UniProt Q12809). The data set is described as follows: Inhibition of Potassium Channel hERG at 10 µM in the Eurofins-Panlabs radioligand binding assay (Eurofins_assay_265900). The conditions noted are these: HEK-293 cells that express human recombinant hERG, probe [3H] Astemizole, compound concentration 10 uM. Also noted: ligand concentration 1.5 nM, non-specific ligand with concentration Astemizole, incubation time 60 min, incubation temperature 25 °C. On the technique in general: Block of hERG is tested as a sign of cardiac risk.

The next data set has as its target Focal adhesion kinase 1 (Homo sapiens, UniProt Q05397). The data set can be described thus: FAK(PTK2LGF1) Takeda global kinase panel.
The target of data set [19] is Inhibitor of nuclear factor kappa-B kinase subunit epsilon (Homo sapiens, UniProt Q14164). The data set can be described thus: IKKepsilon(IKBELGY1) Takeda global kinase panel.
Chain of Inhibitor of nuclear factor kappa-B kinase subunit epsilon (Q14164 whole entry): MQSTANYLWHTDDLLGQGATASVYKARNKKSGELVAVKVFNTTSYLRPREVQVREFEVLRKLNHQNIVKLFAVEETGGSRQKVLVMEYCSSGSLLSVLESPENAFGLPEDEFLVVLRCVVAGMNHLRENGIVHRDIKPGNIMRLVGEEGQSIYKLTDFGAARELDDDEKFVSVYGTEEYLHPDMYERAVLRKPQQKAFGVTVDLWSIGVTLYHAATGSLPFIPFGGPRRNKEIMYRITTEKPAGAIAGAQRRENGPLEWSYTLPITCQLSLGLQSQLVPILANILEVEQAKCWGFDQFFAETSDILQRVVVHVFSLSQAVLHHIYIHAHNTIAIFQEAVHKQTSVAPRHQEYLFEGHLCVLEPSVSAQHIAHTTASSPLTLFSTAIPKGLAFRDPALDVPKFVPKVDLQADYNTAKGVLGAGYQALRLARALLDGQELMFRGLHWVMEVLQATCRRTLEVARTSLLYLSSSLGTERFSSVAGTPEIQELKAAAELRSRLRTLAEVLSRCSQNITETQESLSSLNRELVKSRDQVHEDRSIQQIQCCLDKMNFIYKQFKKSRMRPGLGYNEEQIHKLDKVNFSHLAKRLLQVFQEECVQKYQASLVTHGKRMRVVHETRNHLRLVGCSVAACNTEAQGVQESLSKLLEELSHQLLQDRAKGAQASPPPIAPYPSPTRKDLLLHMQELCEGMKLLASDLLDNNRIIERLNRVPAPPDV
For data set [20], the target named is Tyrosine-protein kinase receptor TYRO3 (Homo sapiens, UniProt Q06418). The data set is described as follows: Tyro3 [Sky(TYR3LGY1)] Takeda global kinase panel.
Data set [21] has as its target 5'-AMP-activated protein kinase catalytic subunit alpha-2 (Homo sapiens, UniProt P54646). The data set is described as follows: AMPKalpha2(PRA2LGY1) Takeda global kinase panel.
Data set [22] has as its target Serine/threonine-protein kinase 25 (Homo sapiens, UniProt O00506). The data set is described as follows: YSK1(ST25LHY1) Takeda global kinase panel.
For data set [23], the target named is Calcium/calmodulin-dependent protein kinase kinase 1 (Homo sapiens, UniProt Q8N5S9). The data set is described as follows: CAMKK1(CAK1LGT5) Takeda global kinase panel.
Data set [24] has as its target Inhibitor of nuclear factor kappa-B kinase subunit beta (Homo sapiens, UniProt O14920). The data set can be described thus: IKKbeta(IKBBLHY1) Takeda global kinase panel.
The target in data set [25] is Glycogen synthase kinase-3 alpha (Homo sapiens, UniProt P49840). The data set can be described thus: GSK3alpha(GS3ALGK1) Takeda global kinase panel.
Data set [26] deals with AP2-associated protein kinase 1 (Homo sapiens, UniProt Q2M2I8). The data set can be described thus: AAK1(AAK1LGF1) Takeda global kinase panel.
Data set [27] addresses Serine/threonine-protein kinase 16 (Homo sapiens, UniProt O75716). The data set can be described thus: MPSK1(ST16LGF1) Takeda global kinase panel.
Data set [28] has as its target Calcium/calmodulin-dependent protein kinase type II subunit beta (Homo sapiens, UniProt Q13554). The data set is described as follows: CaMK2beta(CA2BCGT1) Takeda global kinase panel.
Data set [29] addresses Glutamate NMDA receptor (Rattus norvegicus) (UniProt P35439+Q00959+Q00960+Q00961+Q62645+Q8VHN2+Q9R1M7). To be noted: Compound concentration 10.0 uM.
The target of another data set is Misshapen-like kinase 1 (Homo sapiens, UniProt Q8N4C8). The data set can be described thus: MINK [ZC3(MIN1LGF1)] Takeda global kinase panel.
In data set [30] the target is Mitogen-activated protein kinase kinase kinase 2 (Homo sapiens, UniProt Q9Y2U5). The data set can be described thus: MEKK2 [MAP3K2(M3K2LGF1)] Takeda global kinase panel.
Data set [31] addresses cAMP-dependent protein kinase catalytic subunit gamma (Homo sapiens, UniProt P22612). The data set can be described thus: PKAgamma(PRCGLGY1) Takeda global kinase panel.
Data set [32] concerns the target Serine/threonine-protein kinase 38-like (Homo sapiens, UniProt Q9Y2H1). The data set is described as follows: NDR2(S38LLGF1) Takeda global kinase panel.
For data set [33], the target named is Tyrosine-protein kinase ZAP-70 (Homo sapiens, UniProt P43403). The data set is described as follows: ZAP70(ZAP7LGP1) Takeda global kinase panel.
In data set [34] the target is Histamine H2 receptor (Homo sapiens) (UniProt P25021). To be noted: Compound concentration 10.0 uM.
Chain of Histamine H2 receptor (Homo sapiens) (P25021 whole entry): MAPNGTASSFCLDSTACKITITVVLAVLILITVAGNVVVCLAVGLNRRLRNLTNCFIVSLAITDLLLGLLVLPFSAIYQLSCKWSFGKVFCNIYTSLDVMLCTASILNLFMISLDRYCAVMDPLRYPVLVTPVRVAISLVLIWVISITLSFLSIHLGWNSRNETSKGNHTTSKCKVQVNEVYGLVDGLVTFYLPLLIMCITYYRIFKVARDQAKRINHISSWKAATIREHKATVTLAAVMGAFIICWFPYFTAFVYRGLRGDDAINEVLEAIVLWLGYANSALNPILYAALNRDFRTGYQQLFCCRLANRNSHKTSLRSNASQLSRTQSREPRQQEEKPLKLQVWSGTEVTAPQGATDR
A further data set concerns the target Myosin-IIIa (Homo sapiens, UniProt Q8NEV4). The data set can be described thus: MYO3A(MY3ALGRI) Takeda global kinase panel.
The target in another data set is Activin receptor type-1B (Homo sapiens, UniProt P36896). The data set is described as follows: ALK4(AC1BLGF1) Takeda global kinase panel.
Data set [35] has as its target Calcium/calmodulin-dependent protein kinase type 1 (Homo sapiens, UniProt Q14012). The data set is described as follows: CaMK1alpha(CAM1LGT5) Takeda global kinase panel.
Data set [36] deals with Epithelial discoidin domain-containing receptor 1 (Homo sapiens, UniProt Q08345). The data set can be described thus: DDR1(DDR1LGF1) Takeda global kinase panel.
The target in data set [37] is Fibroblast growth factor receptor 1 (Homo sapiens, UniProt P11362). The data set can be described thus: FGFR1(FGF1LGF1) Takeda global kinase panel.

Chain of Endothelin-1 receptor (Homo sapiens) (P25101 whole entry): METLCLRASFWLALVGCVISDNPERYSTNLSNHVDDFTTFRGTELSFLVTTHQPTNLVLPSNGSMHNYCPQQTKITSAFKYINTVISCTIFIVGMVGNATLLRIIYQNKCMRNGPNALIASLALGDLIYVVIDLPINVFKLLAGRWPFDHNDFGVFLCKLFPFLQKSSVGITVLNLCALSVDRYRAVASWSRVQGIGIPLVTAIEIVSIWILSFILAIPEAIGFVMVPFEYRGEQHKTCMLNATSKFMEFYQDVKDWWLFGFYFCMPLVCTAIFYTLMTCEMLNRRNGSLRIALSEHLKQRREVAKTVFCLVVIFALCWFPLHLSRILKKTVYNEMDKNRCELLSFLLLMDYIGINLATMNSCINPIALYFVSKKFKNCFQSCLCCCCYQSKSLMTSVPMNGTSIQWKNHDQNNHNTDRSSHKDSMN
Chain of Focal adhesion kinase 1 (Q05397 whole entry): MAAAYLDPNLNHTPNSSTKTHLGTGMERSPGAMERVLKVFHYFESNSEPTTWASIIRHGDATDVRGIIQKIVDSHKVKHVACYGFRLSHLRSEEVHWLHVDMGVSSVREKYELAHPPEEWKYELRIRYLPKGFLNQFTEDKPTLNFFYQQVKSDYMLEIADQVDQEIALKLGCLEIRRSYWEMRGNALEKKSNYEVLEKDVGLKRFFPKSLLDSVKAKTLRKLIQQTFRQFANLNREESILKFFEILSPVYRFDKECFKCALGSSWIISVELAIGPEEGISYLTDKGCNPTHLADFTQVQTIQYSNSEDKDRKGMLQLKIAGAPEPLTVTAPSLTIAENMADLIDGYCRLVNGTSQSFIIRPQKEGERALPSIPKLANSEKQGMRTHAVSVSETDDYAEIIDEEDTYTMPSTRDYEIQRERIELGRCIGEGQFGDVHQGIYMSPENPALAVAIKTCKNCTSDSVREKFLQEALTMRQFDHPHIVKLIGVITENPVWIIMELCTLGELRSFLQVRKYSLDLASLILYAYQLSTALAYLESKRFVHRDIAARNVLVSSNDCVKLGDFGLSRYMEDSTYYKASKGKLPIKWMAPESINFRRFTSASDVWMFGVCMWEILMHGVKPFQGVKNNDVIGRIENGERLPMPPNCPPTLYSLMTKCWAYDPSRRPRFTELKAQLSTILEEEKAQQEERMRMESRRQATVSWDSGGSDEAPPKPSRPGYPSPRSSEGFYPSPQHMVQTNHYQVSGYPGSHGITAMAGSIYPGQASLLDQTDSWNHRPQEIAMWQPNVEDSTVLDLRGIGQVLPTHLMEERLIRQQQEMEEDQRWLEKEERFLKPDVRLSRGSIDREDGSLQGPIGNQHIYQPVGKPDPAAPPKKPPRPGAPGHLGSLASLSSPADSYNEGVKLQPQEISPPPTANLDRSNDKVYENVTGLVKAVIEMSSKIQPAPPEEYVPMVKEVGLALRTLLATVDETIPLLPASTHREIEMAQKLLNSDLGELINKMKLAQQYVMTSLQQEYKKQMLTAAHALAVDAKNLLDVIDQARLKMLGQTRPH
Chain of Myosin-IIIa (Q8NEV4 whole entry): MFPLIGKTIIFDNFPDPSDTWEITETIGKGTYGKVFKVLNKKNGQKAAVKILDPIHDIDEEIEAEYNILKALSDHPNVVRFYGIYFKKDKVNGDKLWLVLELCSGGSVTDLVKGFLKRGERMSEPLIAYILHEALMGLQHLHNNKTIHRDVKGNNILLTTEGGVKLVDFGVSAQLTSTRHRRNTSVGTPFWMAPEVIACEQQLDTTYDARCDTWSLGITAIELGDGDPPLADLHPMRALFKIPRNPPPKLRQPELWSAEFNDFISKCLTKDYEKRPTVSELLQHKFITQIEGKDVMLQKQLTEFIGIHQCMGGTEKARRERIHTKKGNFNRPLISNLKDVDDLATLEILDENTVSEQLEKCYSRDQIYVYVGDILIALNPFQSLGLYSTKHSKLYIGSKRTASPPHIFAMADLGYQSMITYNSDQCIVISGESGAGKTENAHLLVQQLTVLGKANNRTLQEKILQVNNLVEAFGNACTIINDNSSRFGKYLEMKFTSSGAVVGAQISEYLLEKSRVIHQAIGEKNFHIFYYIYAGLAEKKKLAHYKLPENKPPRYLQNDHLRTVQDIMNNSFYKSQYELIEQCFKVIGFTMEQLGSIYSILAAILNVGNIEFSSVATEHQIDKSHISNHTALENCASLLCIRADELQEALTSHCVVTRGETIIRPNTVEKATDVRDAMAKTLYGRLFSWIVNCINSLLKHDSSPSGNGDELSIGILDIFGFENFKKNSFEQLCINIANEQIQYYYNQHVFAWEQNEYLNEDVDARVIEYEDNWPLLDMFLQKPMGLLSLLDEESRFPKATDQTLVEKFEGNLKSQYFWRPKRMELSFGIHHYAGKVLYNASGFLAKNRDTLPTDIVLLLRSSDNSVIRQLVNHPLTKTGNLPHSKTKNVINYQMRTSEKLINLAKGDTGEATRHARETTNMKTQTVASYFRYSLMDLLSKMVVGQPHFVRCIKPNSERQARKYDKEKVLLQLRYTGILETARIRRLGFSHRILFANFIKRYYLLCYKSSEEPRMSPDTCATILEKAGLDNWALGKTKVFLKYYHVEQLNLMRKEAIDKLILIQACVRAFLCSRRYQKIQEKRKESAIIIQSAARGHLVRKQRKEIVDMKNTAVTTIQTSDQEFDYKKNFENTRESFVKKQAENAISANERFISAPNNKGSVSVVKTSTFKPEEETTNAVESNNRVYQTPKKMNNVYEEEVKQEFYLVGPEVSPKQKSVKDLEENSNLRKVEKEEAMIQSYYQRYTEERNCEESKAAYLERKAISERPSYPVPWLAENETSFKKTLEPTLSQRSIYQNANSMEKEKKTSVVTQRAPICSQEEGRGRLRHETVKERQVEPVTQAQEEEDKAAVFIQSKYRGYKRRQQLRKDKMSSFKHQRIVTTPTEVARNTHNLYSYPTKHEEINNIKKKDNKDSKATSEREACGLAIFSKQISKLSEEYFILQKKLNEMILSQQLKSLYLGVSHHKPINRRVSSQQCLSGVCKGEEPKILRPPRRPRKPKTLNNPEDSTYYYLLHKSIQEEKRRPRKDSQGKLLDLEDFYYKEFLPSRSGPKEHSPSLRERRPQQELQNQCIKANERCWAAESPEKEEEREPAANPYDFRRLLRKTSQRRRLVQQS
Chain of Serine/threonine-protein kinase SIK1 (P57059 whole entry): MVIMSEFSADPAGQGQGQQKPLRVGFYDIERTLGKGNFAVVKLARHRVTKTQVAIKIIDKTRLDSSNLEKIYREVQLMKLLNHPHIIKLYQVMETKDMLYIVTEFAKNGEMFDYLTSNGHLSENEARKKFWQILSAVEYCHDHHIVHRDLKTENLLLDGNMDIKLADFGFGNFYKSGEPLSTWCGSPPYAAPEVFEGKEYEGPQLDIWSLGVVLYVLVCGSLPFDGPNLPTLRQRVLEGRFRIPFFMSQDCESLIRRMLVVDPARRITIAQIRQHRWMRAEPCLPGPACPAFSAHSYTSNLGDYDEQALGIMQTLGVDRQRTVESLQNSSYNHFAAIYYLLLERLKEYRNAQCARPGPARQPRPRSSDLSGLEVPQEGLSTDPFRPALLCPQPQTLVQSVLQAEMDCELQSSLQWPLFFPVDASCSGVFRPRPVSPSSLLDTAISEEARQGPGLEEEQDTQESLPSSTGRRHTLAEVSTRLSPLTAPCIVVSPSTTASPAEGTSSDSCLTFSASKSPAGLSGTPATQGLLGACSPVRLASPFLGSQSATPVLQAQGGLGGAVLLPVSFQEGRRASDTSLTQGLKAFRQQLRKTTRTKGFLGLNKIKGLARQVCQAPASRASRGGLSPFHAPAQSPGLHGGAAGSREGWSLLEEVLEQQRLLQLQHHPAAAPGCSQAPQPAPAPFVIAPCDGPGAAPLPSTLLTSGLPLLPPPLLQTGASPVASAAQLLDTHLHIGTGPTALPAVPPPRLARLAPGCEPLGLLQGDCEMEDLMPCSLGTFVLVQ

As for `CN1C(=O)[C@@H](N2CCc3cn(Cc4ccccc4)nc3C2=O)COc2ccccc21` [TP-030-1], the inhibition (in general, the change of the read-out against control, counted positive when it falls) was -8% in [1]; 17.4% in data set [2]; 20.5% in data set [4]; 27% in data set [5]; -6% in the data set listed under Oryctolagus cuniculus; 14.7% in data set [6]. The inhibition in [7] was 5.99%; in [8] it was 18.8%; in data set [9], 21.1%; in data set [10], 28.8%; in data set [11], 0.09%; in [12], -1.55%. The inhibition is -8% in data set [14] and -5% in data set [15]. In addition, the half-maximal inhibitory concentration (IC50) in [3] and in data set [13] was 1 µM throughout.

Regarding `CN1C(=O)[C@@H](N2CCc3cn(CC4CCS(=O)(=O)CC4)nc3C2=O)COc2ccccc21` [TP-030n], the IC50 (in [16]; in data set [17]; in [18]; at Ephrin type-A receptor 2; on Focal adhesion kinase 1; in data set [19]) was 1 µM each time. The IC50 in [20], in [21], in data set [22], in [23], in [24] and in data set [25] was 1 µM throughout. The IC50 (in data set [26]; in data set [27]; in data set [28]; against Misshapen-like kinase 1; in [30]; in data set [31]) was 1 µM throughout. The IC50 (in [32]; in [33]; on Myosin-IIIa; against Activin receptor type-1B; in [35]; in data set [36]) was 1 µM in each case. Moreover, 1 µM corresponded to half-maximal inhibition in data set [37] (IC50). In addition, the inhibition at 60 min, 10 µM at hERG (KCNH2) is listed as 11% (not active). Further, the inhibition in data set [29] is 4%; in data set [34], -10%.
